Test results taken from patent US20050175567A1, “Hair care compositions containing phenolic styling agents” (priority 2002, published 2005).

Test: Curl dropout of treated hair curls in high humidity chamber
Details: 1% by weight solution in water; curls soaked 1 hour, rinsed, dried 30 minutes; 90% RH, 30° C., fan agitation, 1 minute
Protocol: Three solutions were formulated each containing 1% by weight of either 2,5 dihydroxybenzoic acid, 3,4 dihydroxybenzoic acid or 3,5 dihydroxybenzoic acid. Hair curls were made up using perming rods and 30 cm length hair.
The curls were placed in the solution for 1 hour, rinsed thoroughly with distilled water and dried for 30 minutes. The hair was removed from the curling rod and the length of the curl measured.
The hair was hung in high humidity environmental chamber (90% RH, 30° C.) with fan agitation for 1 minute and measured again.

| SMILES | Curl dropout % [%] |
| --- | --- |
| O=C(O)c1cc(O)ccc1O [2,5 dihydroxybenzoic acid] | 17.1 |
| O=C(O)c1cc(O)cc(O)c1 [3,5 dihydroxybenzoic acid] | 26 |
| O=C(O)c1ccc(O)c(O)c1 [3,4 dihydroxybenzoic acid] | 29 |
